Measured values reported in BindingDB's records for patent US20240158408 (280 Bio, 2024).

How the values were obtained:
[1] = target: Phosphatidylinositol 4,5-bisphosphate 3-kinase catalytic subunit alpha isoform [H1047R] (Homo sapiens, UniProt P42336, H1047R)
[2] = target: Phosphatidylinositol 4,5-bisphosphate 3-kinase catalytic subunit alpha isoform (Homo sapiens, UniProt P42336); assay: ADP-Glo Kinase Assay
Phosphatidylinositol 4,5-bisphosphate 3-kinase catalytic subunit alpha isoform, sequence (P42336 whole entry, canonical isoform): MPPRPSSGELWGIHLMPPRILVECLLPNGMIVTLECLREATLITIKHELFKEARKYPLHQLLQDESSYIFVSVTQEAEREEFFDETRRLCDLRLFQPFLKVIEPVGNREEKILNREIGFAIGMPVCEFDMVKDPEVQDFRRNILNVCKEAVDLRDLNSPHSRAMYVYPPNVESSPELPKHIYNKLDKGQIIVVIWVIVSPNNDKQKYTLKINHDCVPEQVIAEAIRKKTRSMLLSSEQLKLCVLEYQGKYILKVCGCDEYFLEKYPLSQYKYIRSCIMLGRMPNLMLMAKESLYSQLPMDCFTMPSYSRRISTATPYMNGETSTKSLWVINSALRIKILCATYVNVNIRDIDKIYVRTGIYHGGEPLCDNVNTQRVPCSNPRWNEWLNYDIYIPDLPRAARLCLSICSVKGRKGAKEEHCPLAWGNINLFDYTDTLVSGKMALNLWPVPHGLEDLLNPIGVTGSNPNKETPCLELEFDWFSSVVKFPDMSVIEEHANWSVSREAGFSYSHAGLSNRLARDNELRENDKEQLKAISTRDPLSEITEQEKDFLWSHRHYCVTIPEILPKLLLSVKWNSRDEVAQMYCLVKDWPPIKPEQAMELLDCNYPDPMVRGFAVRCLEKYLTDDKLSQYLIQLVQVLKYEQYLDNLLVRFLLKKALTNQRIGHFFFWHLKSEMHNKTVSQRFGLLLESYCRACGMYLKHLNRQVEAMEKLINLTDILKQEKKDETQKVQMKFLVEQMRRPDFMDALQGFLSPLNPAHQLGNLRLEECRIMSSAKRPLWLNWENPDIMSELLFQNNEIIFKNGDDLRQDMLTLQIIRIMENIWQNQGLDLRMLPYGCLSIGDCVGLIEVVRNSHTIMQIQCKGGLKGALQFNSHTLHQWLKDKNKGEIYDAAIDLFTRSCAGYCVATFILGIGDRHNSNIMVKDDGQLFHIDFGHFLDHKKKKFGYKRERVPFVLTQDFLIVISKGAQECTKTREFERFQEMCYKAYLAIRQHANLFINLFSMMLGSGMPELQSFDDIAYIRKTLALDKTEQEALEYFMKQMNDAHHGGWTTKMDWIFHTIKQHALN

Phosphatidylinositol 4,5-bisphosphate 3-kinase catalytic subunit alpha isoform [H1047R], sequence (P42336 whole entry H1047R, canonical isoform): as the sequence (P42336 whole entry, canonical isoform) above, with H1047R counted along it

## Cn1nc2ccc(NC(=O)c3cc(F)cc(C(F)(F)F)c3)c3c2c1C(=O)NC3c1cc(Cl)ccc1Cl (stereo unspecified) [US20240158408, Compound YL104]
[1]
  IC50: < 0.25 µM
[2]
  IC50: > 10 µM

## Cn1nc2c(-c3ccc4ncnn4c3C#N)cc(NC(=O)c3cc(F)cc(C(F)(F)F)c3)c3c2c1C(=O)NC3c1cc(F)ccc1Cl (stereo unspecified) [US20240158408, Compound YL106]
[1]
  IC50: < 0.25 µM
[2]
  IC50: > 10 µM

## Cn1nc2c(-c3ccc4ncnn4c3C#N)cc(NC(=O)c3cc(F)cc(C(F)(F)F)c3)c3c2c1C(=O)NC3c1cc(Cl)ccc1Cl (stereo unspecified) [US20240158408, Compound YL107]
[1]
  IC50: < 0.25 µM
[2]
  IC50: > 10 µM
